# Experimental data taken from paper PMC10458458, “Characterization of Anticancer Effects of the Analogs of DJ4, a Novel Selective Inhibitor of ROCK and MRCK Kinases” (Pharmaceuticals, 2023).
# What was measured:
# Assay in all cases: NCI-60 screen (SRB)
# Assay type in all cases: cell-based, human
# 786-0 = 786-0 (Renal Cancer), 10 µM, 48 h; negative = cell death vs time zero
# Excerpt: (§1) The selected active compounds were screened at NCI, as a part of In Vitro Cell Line Screening Project (IVCLSP), for their effect on cell growth in 60 different cancer cell lines. The 60 human cancer cell line panel included leukemia, melanoma, non-small cell lung cancer, colon, central nervous system (CNS), ovarian, renal, prostate, and breast cancer cell lines. The detailed procedure and applications of NCI-60 cell line screening can be found at https://dtp.cancer.gov/discovery_development/nci-60/default.htm (accessed on 9 January 2023). Briefly, cells were plated in 96-well plates and incubated for 24 h. One set of cells was fixed with trichloroacetic acid at time 0 h (Tz), and SRB (sulphorhodamine B) assays were performed to quantify the cells. The remaining set of cells were treated with 10 µM single concentration of each compound and incubated for 48 h (Te) after which the cells were fixed, and the SRB assays were performed. Data are presented as percent growth relative to the control as 100% according to the following calculations:
# (§2) When Te >/= Tz. Growth(%)=Te−Tz/C−Tz∗100 and when Te < Tz. (1) Growth(%)=Te−Tz/Tz∗100
# (§3) Values between 0–100 indicate cell growth, zero (0) indicates no cell growth, values < 0 indicate cell death.
# A498 = A498 (Renal Cancer), 10 µM, 48 h; negative = cell death vs time zero
# Excerpt: as §1, §2, §3
# COLO 205 = COLO 205 (Colon Cancer), 10 µM, 48 h; negative = cell death vs time zero
# Excerpt: as §1, §2, §3
# DU-145 = DU-145 (Prostate Cancer), 10 µM, 48 h; negative = cell death vs time zero
# Excerpt: as §1, §2, §3
# HCT-116 = HCT-116 (Colon Cancer), 10 µM, 48 h; negative = cell death vs time zero
# Excerpt: as §1, §2, §3
# HCT-15 = HCT-15 (Colon Cancer), 10 µM, 48 h; negative = cell death vs time zero
# Excerpt: as §1, §2, §3
# HL-60(TB) = HL-60(TB) (Leukemia), 10 µM, 48 h; negative = cell death vs time zero
# Excerpt: as §1, §2, §3
# HOP-92 = HOP-92 (Non-Small Cell Lung Cancer), 10 µM, 48 h; negative = cell death vs time zero
# Excerpt: as §1, §2, §3
# K-562 = details: 10 µM, 48 h; for percent cell growth: K-562 (Leukemia), negative = cell death vs time zero; for increase in cell number: K-562 (leukemia)
# Excerpt: as §1, §2, §3
# MALME-3M = details: 10 µM, 48 h; for percent cell growth: MALME-3M (Melanoma), negative = cell death vs time zero
# Excerpt: as §1, §2, §3
# NCI-H23 = NCI-H23 (Non-Small Cell Lung Cancer), 10 µM, 48 h; negative = cell death vs time zero
# Excerpt: as §1, §2, §3
# NCI-H460 = NCI-H460 (Non-Small Cell Lung Cancer), 10 µM, 48 h; negative = cell death vs time zero
# Excerpt: as §1, §2, §3
# NCI-H522 = NCI-H522 (Non-Small Cell Lung Cancer), 10 µM, 48 h; negative = cell death vs time zero
# Excerpt: as §1, §2, §3
# NCI/ADR-RES = details: for percent cell growth: NCI/ADR-RES (Ovarian Cancer), negative = cell death vs time zero; for percent cell growth / increase in cell number: 10 µM, 48 h; for increase in cell number: NCI/ADR-RES (ovarian)
# Excerpt: as §1, §2, §3
# OVCAR-5 = OVCAR-5 (Ovarian Cancer), 10 µM, 48 h; negative = cell death vs time zero
# Excerpt: as §1, §2, §3
# OVCAR-8 = OVCAR-8 (Ovarian Cancer), 10 µM, 48 h; negative = cell death vs time zero
# Excerpt: as §1, §2, §3
# RPMI-8226 = details: 10 µM, 48 h; for percent cell growth: RPMI-8226 (Leukemia), negative = cell death vs time zero; for increase in cell number: RPMI-8226 (leukemia)
# Excerpt: as §1, §2, §3
# RXF 393 = RXF 393 (Renal Cancer), 10 µM, 48 h; negative = cell death vs time zero
# Excerpt: as §1, §2, §3
# SF-268 = SF-268 (CNS Cancer), 10 µM, 48 h; negative = cell death vs time zero
# Excerpt: as §1, §2, §3
# SF-539 = details: 10 µM, 48 h; for percent cell growth: SF-539 (CNS Cancer), negative = cell death vs time zero
# Excerpt: as §1, §2, §3
# SN12C = SN12C (Renal Cancer), 10 µM, 48 h; negative = cell death vs time zero
# Excerpt: as §1, §2, §3
# SNB-75 = details: 10 µM, 48 h; for percent cell growth: SNB-75 (CNS Cancer), negative = cell death vs time zero
# Excerpt: as §1, §2, §3
# SR = SR (Leukemia), 10 µM, 48 h; negative = cell death vs time zero
# Excerpt: as §1, §2, §3
# TK-10 = TK-10 (Renal Cancer), 10 µM, 48 h; negative = cell death vs time zero
# Excerpt: as §1, §2, §3
# UACC-257 = UACC-257 (Melanoma), 10 µM, 48 h; negative = cell death vs time zero
# Excerpt: as §1, §2, §3
# UO-31 = UO-31 (Renal Cancer), 10 µM, 48 h; negative = cell death vs time zero
# Excerpt: as §1, §2, §3
SMILES,percent cell growth (786-0),percent cell growth (A498),percent cell growth (COLO 205),percent cell growth (DU-145),percent cell growth (HCT-116),percent cell growth (HCT-15),percent cell growth (HL-60(TB)),percent cell growth (HOP-92),percent cell growth (K-562),percent cell growth (MALME-3M),percent cell growth (NCI-H23),percent cell growth (NCI-H460),percent cell growth (NCI-H522),percent cell growth (NCI/ADR-RES),percent cell growth (OVCAR-5),percent cell growth (OVCAR-8),percent cell growth (RPMI-8226),percent cell growth (RXF 393),percent cell growth (SF-268),percent cell growth (SF-539),other results
Cl.O=C1NC(=NCCc2ccccc2)SC1=Cc1c[nH]c2ncccc12 (mixture of isomers) [DJ4-HCl],19.7%,−21.3%,−6.8%,15.3%,5.8%,33.5%,−6.6%,11.8%,28.5%,44.8%,3.0%,15.1%,4.3%,58.4%,18.1%,9.7%,38.7%,−30.1%,8.9%,−37.2%,percent cell growth (SN12C): 33.5%; percent cell growth (SNB-75): −13.3%; percent cell growth (SR): −1.5%; percent cell growth (TK-10): 18.8%; percent cell growth (UACC-257): −1.7%; percent cell growth (UO-31): 36.6%
O=C1N/C(=N\CCc2ccccc2)S/C1=C/c1c[nH]c2ncccc12 [DJ4],9.0%,−7.6%,4.8%,20.7%,9.7%,36.5%,6.8%,−9.7%,29.9%,30.6%,9.1%,14.1%,26.6%,72.9%,37.8%,14.0%,39.2%,−20.2%,10.4%,0.4%,"IC50 (NCI/ADR-RES; Homo sapiens, NCI/ADR-RES ovarian cancer cell line, NCI-60 screen): > 10 µM; percent cell growth (SN12C): 15.9%; percent cell growth (SNB-75): −10.9%; percent cell growth (SR): 5.6%; percent cell growth (TK-10): 34.2%; percent cell growth (UACC-257): 14.6%; percent cell growth (UO-31): 25.2%"
C=CC/N=C1\NC(=O)/C(=C\c2c[nH]c3ncccc23)S1 [DJ-Allyl],4.4%,−34.5%,−20.1%,12.7%,6.3%,24.7%,−14.5%,−1.9%,42.1%,40.2%,6.8%,2.2%,−5.3%,42.1%,5.3%,10.7%,42.7%,−41.3%,−3.3%,−66.2%,increase in cell number (K-562): ~ 40%; increase in cell number (MALME-3M; MALME-3M (melanoma)): ~ 40%; increase in cell number (NCI/ADR-RES): ~ 40%; increase in cell number (RPMI-8226): ~ 40%; reduction in cell number (SF-539; SF-539 (CNS)): 60%; percent cell growth (SN12C): 24.0%; percent cell growth (SNB-75): −67.3%; reduction in cell number (SNB-75; SNB-75 (CNS)): 60%; percent cell growth (SR): −9.5%; percent cell growth (TK-10): 1.7%; percent cell growth (UACC-257): 9.6%; percent cell growth (UO-31): 3.1%
CC/N=C1\NC(=O)/C(=C\c2c[nH]c3ncccc23)S1 [DJE4],3.0%,−54.2%,−33.3%,9.9%,4.0%,16.0%,−22.4%,4.4%,26.3%,−6.2%,−7.9%,2.4%,−28.6%,29.7%,8.7%,6.3%,29.1%,−39.3%,−5.8%,−64.2%,increase in cell number (K-562): 26%; increase in cell number (NCI/ADR-RES): 29%; increase in cell number (RPMI-8226): 29%; percent cell growth (SN12C): 12.6%; percent cell growth (SNB-75): −71.8%; percent cell growth (SR): 0.4%; percent cell growth (TK-10): −3.8%; percent cell growth (UACC-257): −15.9%; percent cell growth (UO-31): 7.5%
